The record followed here is ChEMBL document CHEMBL1132652, “Design and synthesis of isoxazoline derivatives as factor Xa inhibitors. 2” (J Med Chem, 1999).

Data set [1] is described as follows: In vivo clearance (5 mg/kg) was determined in rabbits. The class given is ADME, organism-based, Oryctolagus cuniculus. Conditions: rabbit.
A short description of data set [2]: The plasma half life (5 mg/kg) was measured in rabbits. Type of data set: ADME, organism-based, Oryctolagus cuniculus. Conditions: rabbit.
A further data set addresses Coagulation factor X (Homo sapiens, UniProt P00742). Nature of the data set: Binding affinity towards human purified Coagulation factor Xa (FXa).
The species named for a further data set is Oryctolagus cuniculus. Description: Inhibitory activity against thrombus formation in rabbit using Arterio-Venous Shunt Thrombosis Model. The class given is functional.
The target of the next data set is Prothrombin (Homo sapiens, UniProt P00734). Nature of the data set: Binding affinity towards thrombin obtained from human purified enzymes.
For a further data set, the target named is Serine protease 1 (Homo sapiens, UniProt P07477). Description: Binding affinity towards trypsin obtained from human purified enzymes.

A value given as a limit tells only on which side of the number the result lay.

Serine protease 1, sequence (P07477 whole entry): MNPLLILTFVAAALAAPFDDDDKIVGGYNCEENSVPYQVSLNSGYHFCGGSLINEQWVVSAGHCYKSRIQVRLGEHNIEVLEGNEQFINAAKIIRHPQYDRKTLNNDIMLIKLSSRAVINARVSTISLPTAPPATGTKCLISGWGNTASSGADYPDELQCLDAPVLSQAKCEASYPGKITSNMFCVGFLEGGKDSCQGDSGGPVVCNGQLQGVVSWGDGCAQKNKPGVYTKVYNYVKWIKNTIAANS
Coagulation factor X, sequence (P00742 41-179 limits assumed): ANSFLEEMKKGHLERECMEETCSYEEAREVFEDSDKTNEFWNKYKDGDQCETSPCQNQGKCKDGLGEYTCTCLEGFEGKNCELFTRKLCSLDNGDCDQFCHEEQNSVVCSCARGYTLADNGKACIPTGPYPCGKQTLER
Coagulation factor X, sequence (P00742 235-488 limits assumed): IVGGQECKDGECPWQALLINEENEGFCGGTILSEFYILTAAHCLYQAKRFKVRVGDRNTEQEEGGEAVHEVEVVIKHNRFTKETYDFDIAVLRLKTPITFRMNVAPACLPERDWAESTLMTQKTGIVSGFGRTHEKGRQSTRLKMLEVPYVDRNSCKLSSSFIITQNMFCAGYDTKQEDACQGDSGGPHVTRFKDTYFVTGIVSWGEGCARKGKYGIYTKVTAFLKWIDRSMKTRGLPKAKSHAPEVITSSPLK

Usually clearance stands for the volume of plasma or blood freed of the substance per unit of time. A low value points to inefficient removal. What is called half-life is how long it takes for the measured level to halve. In general, Ki refers to the dissociation constant of the complex between target and ligand, obtained from inhibition or displacement. Read a high Ki as weaker binding. In the case of `CCOCC1(C(=O)Nc2ccc(-c3ccccc3S(N)(=O)=O)cn2)CC(c2cccc(C(=N)N)c2)=NO1` (stereo not given) [listing 1 of 2 here], in data set [1], the clearance was 21.7 mL/min/kg. In data set [2], this molecule showed a half-life of 36 min. Further, the results for the Ki on Coagulation factor X, at Prothrombin and at Serine protease 1 were 0.8 nM, 5000 nM and 25 nM, respectively. This molecule had an ID50 in the data set filed under Oryctolagus cuniculus of 0.8 µM/h/kg.

`N=C(N)c1cccc(C2=NOC(Cn3cnnn3)(C(=O)Nc3ccc(-c4ccccc4S(N)(=O)=O)cc3)C2)c1` (stereo not given) [listing 1 of 2 here] had a clearance in data set [1] of 5 mL/min/kg. The molecule further had a half-life in data set [2] of 36 min. In addition, the Ki is 0.52 nM on Coagulation factor X, 400 nM on Prothrombin and 45 nM on Serine protease 1. The ID50 in the data set filed under Oryctolagus cuniculus came to 0.035 µM/h/kg.

For `N=C(N)c1cccc(C2=NOC(C(=O)Nc3ccc(-c4ccccc4S(N)(=O)=O)cc3)C2)c1` (stereo not given), the Ki worked out at 7.2 nM at Coagulation factor X, 3900 nM at Prothrombin and 83 nM on Serine protease 1.

`CCS(=O)(=O)CC1(C(=O)Nc2ncc(-c3ccccc3S(N)(=O)=O)cn2)CC(c2cccc(C(=N)N)c2)=NO1` (stereo not given): the Ki on Coagulation factor X worked out at 5.3 nM; on Prothrombin it was 13000 nM; at Serine protease 1, 290 nM.

For `CCCOCC1(C(=O)Nc2ccc(-c3ccccc3S(N)(=O)=O)cc2)CC(c2cccc(C(=N)N)c2)=NO1` (stereo not given), the Ki at Coagulation factor X was found to be 2.9 nM; at Prothrombin, 4300 nM; on Serine protease 1 it was 90 nM.

Take `CCS(=O)(=O)CC1(C(=O)Nc2ccc(-c3ccccc3S(N)(=O)=O)cn2)CC(c2cccc(C(=N)N)c2)=NO1` (stereo not given): the Ki was 1.7 nM on Coagulation factor X, 5800 nM at Prothrombin and 72 nM at Serine protease 1.

As for `CC(C)OCC1(C(=O)Nc2ccc(-c3ccccc3S(N)(=O)=O)cc2)CC(c2cccc(C(=N)N)c2)=NO1` (stereo not given), the Ki was found to be 4.3 nM on Coagulation factor X, 4500 nM on Prothrombin and 120 nM at Serine protease 1.

Take `N=C(N)c1cccc(C2=NOC(Cn3ncnn3)(C(=O)Nc3ccc(-c4ccccc4S(N)(=O)=O)cc3)C2)c1` (stereo not given): the Ki at Coagulation factor X amounted to 1.6 nM; at Prothrombin it was 2900 nM; on Serine protease 1, 91 nM.

As for `N=C(N)c1cccc(C2=NOC(Cn3cnnn3)(C(=O)Nc3ccc(-c4ccccc4S(N)(=O)=O)cn3)C2)c1` (stereo not given) [listing 1 of 2 here], the Ki on Coagulation factor X stood at 0.17 nM; on Prothrombin, 1100 nM; at Serine protease 1, 31 nM.

As for `CCS(=O)(=O)CC1(C(=O)Nc2ccc(-c3ccccc3S(N)(=O)=O)cc2)CC(c2cccc(C(=N)N)c2)=NO1` (stereo not given), the Ki at Coagulation factor X was 3.5 nM; on Prothrombin, 2000 nM; on Serine protease 1, 72 nM.

As for `Cc1cc(-c2ccccc2S(N)(=O)=O)ccc1NC(=O)C1(Cn2cnnn2)CC(c2cccc(C(=N)N)c2)=NO1` (stereo not given), the Ki worked out at 1 nM at Coagulation factor X, 300 nM on Prothrombin and 200 nM on Serine protease 1.

In the case of `N=C(N)c1cccc(C2=NOC(Cc3ccccc3)(C(=O)Nc3ccc(-c4ccccc4S(N)(=O)=O)cc3)C2)c1` (stereo not given), the Ki at Coagulation factor X was 8.5 nM; on Prothrombin it was 1300 nM; on Serine protease 1, 80 nM.

`CCCNS(=O)(=O)c1ccccc1-c1ccc(NC(=O)C2(Cn3cnnn3)CC(c3cccc(C(=N)N)c3)=NO2)cc1` (stereo not given): the Ki at Coagulation factor X stood at 2.1 nM; at Prothrombin, 70 nM; on Serine protease 1, 49 nM.

`CCOCC1(C(=O)Nc2ccc(-c3ccccc3S(N)(=O)=O)cc2)CC(c2cccc(C(=N)N)c2)=NO1` (stereo not given) [listing 1 of 2 here]: the clearance in data set [1] is 8.17 mL/min/kg. The same molecule gave a half-life in data set [2] of 37.8 min. In addition, the Ki at Coagulation factor X is 3.3 nM; on Prothrombin it was 2100 nM; at Serine protease 1, 86 nM. This molecule also returned an ID50 in the data set filed under Oryctolagus cuniculus of 0.74 µM/h/kg.

As to `CCOCC1(C(=O)Nc2ncc(-c3ccccc3S(N)(=O)=O)cn2)CC(c2cccc(C(=N)N)c2)=NO1` (stereo not given), the Ki is 6.8 nM at Coagulation factor X, greater than 21000 nM on Prothrombin and 330 nM on Serine protease 1.

For the molecule `N=C(N)c1cccc(C2=NOC(C(=O)Nc3ccc(-c4ccccc4S(N)(=O)=O)cc3)(C(F)(F)F)C2)c1` (stereo not given), the results for the Ki at Coagulation factor X, on Prothrombin and on Serine protease 1 were 23 nM, 6100 nM and 310 nM, respectively.

For the molecule `N=C(N)c1cccc(C2=NOC(Cn3cnnn3)(C(=O)Nc3ccc(-c4ccccc4S(N)(=O)=O)cc3F)C2)c1` (stereo not given), the Ki on Coagulation factor X amounted to 0.44 nM; on Prothrombin, 500 nM; on Serine protease 1, 110 nM.

`CC1(C(=O)Nc2ccc(-c3ccccc3S(N)(=O)=O)cc2)CC(c2cccc(C(=N)N)c2)=NO1` (stereo not given): the Ki at Coagulation factor X was 11 nM; on Prothrombin, 5800 nM; on Serine protease 1, 120 nM.

For the molecule `COCCC1(C(=O)Nc2ccc(-c3ccccc3S(N)(=O)=O)cc2)CC(c2cccc(C(=N)N)c2)=NO1` (stereo not given), the Ki came to 5 nM on Coagulation factor X, 4400 nM at Prothrombin and 98 nM on Serine protease 1.

`COCC1(C(=O)Nc2ccc(-c3ccccc3S(N)(=O)=O)cn2)CC(c2cccc(C(=N)N)c2)=NO1` (stereo not given): the Ki at Coagulation factor X was 2.5 nM; at Prothrombin, 7400 nM; on Serine protease 1, 45 nM.

Take `CNS(=O)(=O)c1ccccc1-c1ccc(NC(=O)C2(Cn3cnnn3)CC(c3cccc(C(=N)N)c3)=NO2)cc1` (stereo not given): the Ki on Coagulation factor X came to 0.92 nM; on Prothrombin, 100 nM; on Serine protease 1 it was 49 nM.

On to `COCC1(C(=O)Nc2ccc(-c3ccccc3S(N)(=O)=O)cc2)CC(c2cccc(C(=N)N)c2)=NO1` (stereo not given), for which the figures for the Ki at Coagulation factor X, on Prothrombin and at Serine protease 1 were 3.4 nM, 2400 nM and 70 nM, respectively.

Turning to `N=C(N)c1cccc(C2=NOC(Cn3cncn3)(C(=O)Nc3ccc(-c4ccccc4S(N)(=O)=O)cc3)C2)c1` (stereo not given), the values for the Ki on Coagulation factor X, on Prothrombin and on Serine protease 1 were 1.7 nM, 3400 nM and 47 nM, respectively.

Take `CCOCC1(C(=O)Nc2ccc(-c3ccccc3S(N)(=O)=O)cn2)CC(c2cccc(C(=N)N)c2)=NO1` (stereo not given) [listing 2 of 2 here]: the Ki turned out to be 2.8 nM on Coagulation factor X, 8400 nM on Prothrombin and 40 nM at Serine protease 1.

On to `CCSCC1(C(=O)Nc2ccc(-c3ccccc3S(N)(=O)=O)cn2)CC(c2cccc(C(=N)N)c2)=NO1` (stereo not given), for which the Ki amounted to 2.2 nM at Coagulation factor X, 2800 nM on Prothrombin and 54 nM on Serine protease 1.

`N=C(N)c1cccc(C2=NOC(CC(=O)O)(C(=O)Nc3ccc(-c4ccccc4S(N)(=O)=O)cc3)C2)c1.O=C(O)C(F)(F)F` (stereo not given) showed a clearance in data set [1] of 4.67 mL/min/kg. In data set [2], this molecule showed a half-life of 94.2 min. Further, the Ki at Coagulation factor X was 20 nM; on Prothrombin, greater than 21000 nM; on Serine protease 1, 630 nM. Also, the ID50 in the data set filed under Oryctolagus cuniculus was greater than 4.8 µM/h/kg.

As for `N=C(N)c1cccc(C2=NOC(Cn3cnnn3)(C(=O)Nc3ncc(-c4ccccc4S(N)(=O)=O)cn3)C2)c1` (stereo not given) [listing 1 of 2 here], the Ki on Coagulation factor X came out at 1.3 nM; at Prothrombin, 7700 nM; at Serine protease 1 it was 500 nM.

For the molecule `CC1(C(=O)Nc2ccc(-c3ccccc3S(N)(=O)=O)cn2)CC(c2cccc(C(=N)N)c2)=NO1` (stereo not given), the figures for the Ki on Coagulation factor X, at Prothrombin and on Serine protease 1 were 4.1 nM, 8100 nM and 41 nM, respectively.

On to `CCCCOCC1(C(=O)Nc2ccc(-c3ccccc3S(N)(=O)=O)cc2)CC(c2cccc(C(=N)N)c2)=NO1` (stereo not given), for which the Ki worked out at 13 nM at Coagulation factor X, 4000 nM at Prothrombin and 113 nM at Serine protease 1.

Regarding `CC(C)COCC1(C(=O)Nc2ccc(-c3ccccc3S(N)(=O)=O)cc2)CC(c2cccc(C(=N)N)c2)=NO1` (stereo not given), the Ki amounted to 37 nM on Coagulation factor X, 3900 nM on Prothrombin and 140 nM on Serine protease 1.

For the molecule `N=C(N)c1cccc(C2=NOC(Cn3cnnn3)(C(=O)Nc3ncc(-c4ccccc4S(N)(=O)=O)cn3)C2)c1` (stereo not given) [listing 2 of 2 here], the values for the Ki on Coagulation factor X, at Prothrombin and at Serine protease 1 were 0.32 nM, 3000 nM and 120 nM, respectively.

For `COC(=O)CC1(C(=O)Nc2ccc(-c3ccccc3S(N)(=O)=O)cc2)CC(c2cccc(C(=N)N)c2)=NO1.O=C(O)C(F)(F)F` (stereo not given), the clearance in data set [1] was 3.5 mL/min/kg. Also, in data set [2], the half-life was 55.2 min. The molecule also had an ID50 in the data set listed under Oryctolagus cuniculus of 0.6 µM/h/kg. Moreover, the figures for the Ki on Prothrombin and at Serine protease 1 were 3100 nM and 110 nM, respectively.

Consider `COCC1(C(=O)Nc2ncc(-c3ccccc3S(N)(=O)=O)cn2)CC(c2cccc(C(=N)N)c2)=NO1` (stereo not given), for which the values for the Ki on Coagulation factor X, on Prothrombin and on Serine protease 1 were 9.9 nM, 16000 nM and 390 nM, respectively.

Turning to `COC(=O)CC1(C(=O)Nc2ncc(-c3ccccc3S(N)(=O)=O)cn2)CC(c2cccc(C(=N)N)c2)=NO1` (stereo not given), the Ki on Coagulation factor X was 4.3 nM; at Prothrombin it was 14000 nM; at Serine protease 1 it was 330 nM.

The molecule `N=C(N)c1cccc(C2=NOC(Cn3cnnn3)(C(=O)Nc3ccc(-c4ccccc4S(N)(=O)=O)cn3)C2)c1` (stereo not given) [listing 2 of 2 here] showed a clearance in data set [1] of 8.33 mL/min/kg. In data set [2], this molecule had a half-life of 42 min. The results for the Ki on Coagulation factor X, at Prothrombin and at Serine protease 1 were 0.11 nM, 900 nM and 18 nM, respectively. In the data set filed under Oryctolagus cuniculus, this molecule had an ID50 of 0.032 µM/h/kg.

As to `CCSCC1(C(=O)Nc2ncc(-c3ccccc3S(N)(=O)=O)cn2)CC(c2cccc(C(=N)N)c2)=NO1` (stereo not given), the Ki at Coagulation factor X came to 2.4 nM; on Prothrombin it was 10000 nM; at Serine protease 1, 350 nM.

In the case of `N=C(N)c1cccc(C2=NOC(Cn3cnnn3)(C(=O)Nc3ccc(-c4ccccc4S(N)(=O)=O)cc3)C2)c1` (stereo not given) [listing 2 of 2 here], the Ki at Coagulation factor X was 1.6 nM; at Prothrombin it was 900 nM; on Serine protease 1 it was 91 nM.

For `N=C(N)c1cccc(C2=NOC(Cn3cnnn3)(C(=O)Nc3ccc(-c4ccccc4S(N)(=O)=O)cc3Cl)C2)c1.O=C(O)C(F)(F)F` (stereo not given), in data set [1], the clearance was 13.3 mL/min/kg. The same molecule had a half-life in data set [2] of 48 min. For the same molecule, the results for the Ki on Coagulation factor X, at Prothrombin and at Serine protease 1 were 0.15 nM, 300 nM and 47 nM, respectively. The ID50 in the data set filed under Oryctolagus cuniculus stood at 0.25 µM/h/kg.

In the case of `COC(=O)CC1(C(=O)Nc2ccc(-c3ccccc3S(N)(=O)=O)cn2)CC(c2cccc(C(=N)N)c2)=NO1` (stereo not given), the figures for the Ki at Coagulation factor X, on Prothrombin and at Serine protease 1 were 2.3 nM, 3900 nM and 52 nM, respectively.

`CCOCC1(C(=O)Nc2ccc(-c3ccccc3S(N)(=O)=O)cc2)CC(c2cccc(C(=N)N)c2)=NO1` (stereo not given) [listing 2 of 2 here]: the values for the Ki on Coagulation factor X, at Prothrombin and on Serine protease 1 were 3.5 nM, 3100 nM and 70 nM, respectively.
